Columns and labels:
[1] = Solubility of carfilzomib as a function of SBECD concentration, pH and temperature; type: physicochemical; settings: SBECD solutions, citric acid 30 mM, pH 1.5 and pH 3.5, 5° C. and 25° C., 24 hours to equilibrate, FIG. 6
Method: The experiments at acidic conditions below the target pH values and titrated to pH 1.5 or 3.5 using aqueous sodium hydroside solution. Measurements of solubilized concentration were those from samples analyzed after 24 hours of time to equilibrate.

[2] = Slurry complexation of CFZ-API with SBECD and citric acid: dissolved complexed concentration; type: physicochemical
Method: In a 525 L stainless steel jacketed cooled tank controlled to 2° C.-8° C., a suspension of 2.0 kg carfilzomib-API (CFZ-API), 246 kg water for injection (WFI), and 100 kg sulfobutylether beta-cyclodextrin (SBECD) was prepared. Specifically, in the 525 L stainless steel jacketed cooled tank controlled to 2° C.-8° C., 100 kg SBECD was dissolved in 246 kg WFI. The Carfilzomib suspension was then prepared using 2.0 kg of CFZ-API. Mixing was performed using an impeller mixer to maintain suspension of the CFZ-API solids and dissolve the SBECD. In the same vessel, a probe style rotor-stator high shear mixer (homogenizer) was used as well as the low shear impeller. The high shear mixer was operated for approximately 1 hour yielding an even suspension and reduction of particle size for any larger primary particles or agglomerated API. After a suspension was achieved, 1.96 kg of citric acid was added as a 16% aqueous solution. The pH of the solution was then lowered inducing partial solubilization of the CFZ-API followed by and complexation due to the presence of SBECD. Mixing was continued for a further 24 hours with both the impeller and the high shear mixer and a dissolved concentration of CFZ-API of greater than 5.1 mg/mL was achieved. […]

CC(C)C[C@H](NC(=O)[C@H](CCc1ccccc1)NC(=O)CN1CCOCC1)C(=O)N[C@@H](Cc1ccccc1)C(=O)N[C@@H](CC(C)C)C(=O)[C@@]1(C)CO1 [carfilzomib]
solubility difference between low and high temperature [1]: No significant differences in solubility
solubility (physchem): < 10 µg/mL
effect of higher SBECD concentration on solubility ([2]; FIG. 3): increased the solubility
dissolved concentration of CFZ-API ([2]; SBECD/WFI suspension plus citric acid, mixing 24 hours, 2-8° C., 400 L batch): greater than 5.1 mg/mL
